{"source": "patent US20050032221A1", "about": "“Dominant negative variants of methionine aminopeptidase 2 (MetAP2) and clinical uses thereof” (priority 2001, published 2005)", "key": {"[1]": {"tested_on": "peptide substrate (MGMM)", "sequence (P38174 whole entry H174A)": "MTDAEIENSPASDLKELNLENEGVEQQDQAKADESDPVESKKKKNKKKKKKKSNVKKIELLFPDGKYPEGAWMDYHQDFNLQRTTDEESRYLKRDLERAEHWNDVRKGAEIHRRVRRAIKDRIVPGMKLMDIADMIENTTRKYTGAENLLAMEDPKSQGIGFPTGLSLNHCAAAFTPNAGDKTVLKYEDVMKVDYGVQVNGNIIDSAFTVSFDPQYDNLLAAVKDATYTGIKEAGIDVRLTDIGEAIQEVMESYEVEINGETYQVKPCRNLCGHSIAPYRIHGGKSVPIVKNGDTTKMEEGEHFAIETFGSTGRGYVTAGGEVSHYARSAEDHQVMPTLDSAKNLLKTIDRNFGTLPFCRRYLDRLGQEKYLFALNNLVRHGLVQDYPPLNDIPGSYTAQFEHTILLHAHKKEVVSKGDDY", "test": "MetAP activity assay of immunopurified HA-tagged yeast MetAP2 with Met-Gly-Met-Met", "format": "biochemical", "conditions": "immunopurified HA-tagged enzyme from map1Δ", "procedure": "[…]. Approximately 2 μg of purified wild-type MetAP2 (WT) and MetAP2 (H174A) was separated on a 10% SDS-PAGE gel and visualized with coomassie blue staining. Specific activity for the wild-type MetAP2 was 11±0.5 U/mg.\nThe purification of HA-tagged wild-type and mutant yeast MetAP2 from a yeast map1Δ strain (Klinkenberg et al., Arch. Biochem. Biophys. 347:193-200, 1997) was performed as previously described (Li and Chang, 1995) with slight modifications. A 1-liter yeast culture was grown aerobically at 30° C. in SG/Leu^− medium. Cells were collected at an OD600˜1-2 by centrifugation at 1500×g for 5 min. The pellet was rinsed with buffer XL (10 mM Hepes, pH 7.4; 1.5 mM MgCl2, 10% Glycerol [v/v]) plus 100 mM NaCl and fresh protease inhibitors (1 μg/ml aprotinin, 1 μg/ml leupeptin, 0.7 μg/ml pepstatin A, 1 mM phenylmethylsulfonyl fluoride). Cells were disrupted by vortexing (5 cycles of 1 min vortexing, 1 min on ice) with 0.5-mm acid-washed glass beads (Biospec Products, Inc.,). The lysate was then cleared at 10,000×g for 20 min at 4° C. Cleared lysate was applied to a Protein-Sepharose G column (Pharmacia) previously rinsed and pre-equilibrated with buffer XL and an anti-hemagglutinin epitope ([…]; SEQ ID NO:23) monoclonal antibody (BabCO). After loading, the column was washed with buffer XL until OD280<0.01. […]"}, "[2]": {"tested_on": "yeast map1Δ strain", "test": "Yeast growth assay, map1Δ, expression under GAL1 promoter", "format": "cell-based, yeast (S. cerevisiae)", "procedure": "A haploid yeast map1Δ strain was transformed to leucine prototrophy with p425GAL1/MAP2 wild-type (WT), p425GAL1/map2 (H174A), or p425GAL1 vector alone (V). Each strain was grown to mid-logarithmic phase at 30° C. in minimal synthetic raffinose medium lacking leucine. Approximately 2×10^5 cells (ABS600) were then streaked onto minimal synthetic plates lacking leucine and supplemented with (A) glucose or (B) galactose. Plates were incubated for 4 days at 30° C.\nA haploid yeast map1Δ strain was transformed to leucine prototrophy with p425GAL1/MAP2 wild-type (WT), p425GAL1/map2 ([…]), p425GAL1/map2 (Δ2-57/H174A) or p425GAL1 vector alone (V). Each strain was grown to mid-logarithmic phase at 30° C. in minimal synthetic raffinose medium lacking leucine. […]\nFor relative growth comparison, strains were grown to mid-logarithmic phase in 5 ml of 2% raffinose minimal media lacking leucine and ˜2×10^5 cells (ABS600) were streaked onto SD/Leu^− or SG/Leu^− plates, then incubated for 4 days at 30° C. For quantitative comparison, a growth curve was obtained (FIG. 4). […] The ABS600 of each 1 mL culture was measured and diluted to an ABS600 of 0.2 in 5 mL of SG/Leu^−. Each 5 mL culture was then grown aerobically at 30° C. and the ABS600 was measured in triplicate at one-hour intervals."}}, "data": [{"substance": "MetAP2 (H174A): variant yeast MetAP2 with His174 replaced by alanine, N-terminal HA tag; dominant negative (SEQ ID NO:8)", "values": [{"measurement": "activity against a peptide substrate (MGMM) in vitro", "setting": "[1]", "value": "no detectable activity"}, {"measurement": "doubling time", "setting": "[2]; SG/Leu- medium, 30° C.", "value": "9.3 ± 0.6", "unit": "h"}, {"measurement": "colony size / growth relative to map1Δ with vector alone", "setting": "[2]; galactose plates, 4 days at 30° C.", "value": "smaller colonies"}]}]}
